pEC50: −log10 of the molar value.
Experiment: Agonist activity at vitamin D3 receptor in human HL-60 cells assessed as induction of cell differentiation after 96 hrs by NBT dye-based microscopic analysis

pEC50 | Compound
6.96 | CCN(CC)CCNC(=O)c1ccc(C(CC)(CC)c2ccc(OCC(O)C(C)(C)C)c(C)c2)n1CC (stereo unspecified)
8.07 | CCn1c(C(=O)N[C@@H](C)CO)ccc1C(CC)(CC)c1ccc(OCC(O)C(C)(C)C)c(C)c1 (stereo partly specified)
4.67 | C=CCN(C)C(=O)c1ccc(C(CC)(CC)c2ccc(OCC(=O)C(C)(C)C)c(C)c2)n1CC
7.04 | CCN(CC)CCNC(=O)c1ccc(C(CC)(CC)c2ccc(OCC(=O)C(C)(C)C)c(C)c2)n1CC
4.34 | CCOC(=O)c1ccc(OC(=O)c2ccc(C(CC)(CC)c3ccc(OCC(=O)C(C)(C)C)c(C)c3)n2CC)cc1
< 4.30 | CCn1c(C(=O)Nc2ccc(OC(F)(F)F)cc2)ccc1C(CC)(CC)c1ccc(OCC(O)C(C)(C)C)c(C)c1 (stereo unspecified)
< 4.30 | CCn1c(C(=O)Nc2cccc(C(F)(F)F)c2)ccc1C(CC)(CC)c1ccc(OCC(O)C(C)(C)C)c(C)c1 (stereo unspecified)
6.20 | CCOc1ccc(NC(=O)c2ccc(C(CC)(CC)c3ccc(OCC(O)C(C)(C)C)c(C)c3)n2CC)cc1 (stereo unspecified)
5.29 | CCn1c(C(=O)Oc2ccc(CCO)cc2)ccc1C(CC)(CC)c1ccc(OCC(O)C(C)(C)C)c(C)c1 (stereo unspecified)
< 4.30 | CCn1c(C(=O)OCc2ccc(F)cc2)ccc1C(CC)(CC)c1ccc(OCC(O)C(C)(C)C)c(C)c1 (stereo unspecified)
6.82 | CCn1c(C(=O)NCC(OC)OC)ccc1C(CC)(CC)c1ccc(OCC(O)C(C)(C)C)c(C)c1 (stereo unspecified)
7.74 | CCn1c(C(=O)NCCCN2CCOCC2)ccc1C(CC)(CC)c1ccc(OCC(O)C(C)(C)C)c(C)c1 (stereo unspecified)
8.00 | CCn1c(C(=O)NCCN)ccc1C(CC)(CC)c1ccc(OCC(O)C(C)(C)C)c(C)c1 (stereo unspecified)
5.19 | CCn1c(C(=O)N(C)c2ccccc2)ccc1C(CC)(CC)c1ccc(OCC(O)C(C)(C)C)c(C)c1 (stereo unspecified)
6.70 | C#CC(C)OC(=O)c1ccc(C(CC)(CC)c2ccc(OCC(O)C(C)(C)C)c(C)c2)n1CC (stereo unspecified)
5.99 | C#CCCOC(=O)c1ccc(C(CC)(CC)c2ccc(OCC(O)C(C)(C)C)c(C)c2)n1CC (stereo unspecified)
8.00 | CC[C@@H](C)[C@H](NC(=O)c1ccc(C(CC)(CC)c2ccc(OCC(=O)C(C)(C)C)c(C)c2)n1CC)C(=O)O
6.13 | CCn1c(C(=O)N(C)CC(=O)O)ccc1C(CC)(CC)c1ccc(OCC(O)C(C)(C)C)c(C)c1 (stereo unspecified)
< 4.30 | CCn1c(C(=O)Nc2ccc(OC(F)(F)F)cc2)ccc1C(CC)(CC)c1ccc(OCC(=O)C(C)(C)C)c(C)c1

pEC50 | Compound
7.66 | CCN(CC)CCCNC(=O)c1ccc(C(CC)(CC)c2ccc(OCC(=O)C(C)(C)C)c(C)c2)n1CC
7.43 | CCn1c(C(=O)NCCCN(C)C)ccc1C(CC)(CC)c1ccc(OCC(O)C(C)(C)C)c(C)c1 (stereo unspecified)
7.18 | CCN(CC)CCCNC(=O)c1ccc(C(CC)(CC)c2ccc(OCC(O)C(C)(C)C)c(C)c2)n1CC (stereo unspecified)
8.64 | CC[C@@H](C)[C@H](NC(=O)c1ccc(C(CC)(CC)c2ccc(OCC(O)C(C)(C)C)c(C)c2)n1CC)C(=O)O (stereo partly specified)
< 4.30 | CCOC(=O)CN(C)C(=O)c1ccc(C(CC)(CC)c2ccc(OCC(=O)C(C)(C)C)c(C)c2)n1CC
6.89 | CCn1c(C(=O)NCC(OC)OC)ccc1C(CC)(CC)c1ccc(OCC(=O)C(C)(C)C)c(C)c1
6.62 | CCn1c(C(=O)NCCCN2CCOCC2)ccc1C(CC)(CC)c1ccc(OCC(=O)C(C)(C)C)c(C)c1
5.01 | CCn1c(C(=O)N(C)CCC#N)ccc1C(CC)(CC)c1ccc(OCC(=O)C(C)(C)C)c(C)c1
4.73 | CCn1c(C(=O)N(C)c2ccccc2)ccc1C(CC)(CC)c1ccc(OCC(=O)C(C)(C)C)c(C)c1
6.68 | CCOC(=O)CN(C)C(=O)c1ccc(C(CC)(CC)c2ccc(OCC(O)C(C)(C)C)c(C)c2)n1CC (stereo unspecified)
< 4.30 | CCn1c(C(=O)OCc2ccccn2)ccc1C(CC)(CC)c1ccc(OCC(=O)C(C)(C)C)c(C)c1
6.62 | C#CCNC(=O)c1ccc(C(CC)(CC)c2ccc(OCC(O)C(C)(C)C)c(C)c2)n1CC (stereo unspecified)
7.11 | CCn1c(C(=O)NCCN(C)C)ccc1C(CC)(CC)c1ccc(OCC(=O)C(C)(C)C)c(C)c1
6.42 | CCn1c(C(=O)OC(C)CCO)ccc1C(CC)(CC)c1ccc(OCC(=O)C(C)(C)C)c(C)c1 (stereo unspecified)
5.72 | CCn1c(C(=O)NCCBr)ccc1C(CC)(CC)c1ccc(OCC(=O)C(C)(C)C)c(C)c1
7.02 | CCn1c(C(=O)NCCCN(C)C)ccc1C(CC)(CC)c1ccc(OCC(=O)C(C)(C)C)c(C)c1
7.59 | CC[C@@H](C)[C@H](NC(=O)c1ccc(C(CC)(CC)c2ccc(OCC(O)C(C)(C)C)c(C)c2)n1CC)C(=O)OC (stereo partly specified)
5.02 | CCn1c(C(=O)OCc2ccc(F)cc2)ccc1C(CC)(CC)c1ccc(OCC(=O)C(C)(C)C)c(C)c1
5.40 | C=CCN(C)C(=O)c1ccc(C(CC)(CC)c2ccc(OCC(O)C(C)(C)C)c(C)c2)n1CC (stereo unspecified)

pEC50 | Compound
6.92 | CCn1c(C(=O)NCCN)ccc1C(CC)(CC)c1ccc(OCC(=O)C(C)(C)C)c(C)c1
7.01 | CCn1c(C(=O)N(CCC#N)CCC#N)ccc1C(CC)(CC)c1ccc(OCC(O)C(C)(C)C)c(C)c1 (stereo unspecified)
6.23 | CC[C@@H](C)[C@H](NC(=O)c1ccc(C(CC)(CC)c2ccc(OCC(=O)C(C)(C)C)c(C)c2)n1CC)C(=O)OC
5.66 | C#CCNC(=O)c1ccc(C(CC)(CC)c2ccc(OCC(=O)C(C)(C)C)c(C)c2)n1CC
6.06 | CCn1c(C(=O)N(CCC#N)CCC#N)ccc1C(CC)(CC)c1ccc(OCC(=O)C(C)(C)C)c(C)c1
7.85 | CCn1c(C(=O)NCCN(C)C)ccc1C(CC)(CC)c1ccc(OCC(O)C(C)(C)C)c(C)c1 (stereo unspecified)
6.89 | CCn1c(C(=O)NCCBr)ccc1C(CC)(CC)c1ccc(OCC(O)C(C)(C)C)c(C)c1 (stereo unspecified)
5.86 | CCn1c(C(=O)N(C)CC(=O)O)ccc1C(CC)(CC)c1ccc(OCC(=O)C(C)(C)C)c(C)c1
< 4.30 | CCn1c(C(=O)Nc2cccc(C(F)(F)F)c2)ccc1C(CC)(CC)c1ccc(OCC(=O)C(C)(C)C)c(C)c1
5.63 | CCn1c(C(=O)Oc2ccc(CC(=O)OC)cc2)ccc1C(CC)(CC)c1ccc(OCC(=O)C(C)(C)C)c(C)c1
< 4.30 | CCOC(=O)c1ccc(OC(=O)c2ccc(C(CC)(CC)c3ccc(OCC(O)C(C)(C)C)c(C)c3)n2CC)cc1 (stereo unspecified)
6.68 | C#CC(C)OC(=O)c1ccc(C(CC)(CC)c2ccc(OCC(=O)C(C)(C)C)c(C)c2)n1CC (stereo unspecified)
4.54 | C#CCCOC(=O)c1ccc(C(CC)(CC)c2ccc(OCC(=O)C(C)(C)C)c(C)c2)n1CC
< 4.30 | CCn1c(C(=O)OCc2ccccn2)ccc1C(CC)(CC)c1ccc(OCC(O)C(C)(C)C)c(C)c1 (stereo unspecified)
< 4.30 | CCOC(=O)CC(C)OC(=O)c1ccc(C(CC)(CC)c2ccc(OCC(=O)C(C)(C)C)c(C)c2)n1CC (stereo unspecified)
< 4.30 | CCOc1ccc(NC(=O)c2ccc(C(CC)(CC)c3ccc(OCC(=O)C(C)(C)C)c(C)c3)n2CC)cc1
5.71 | CCn1c(C(=O)N(C)CCC#N)ccc1C(CC)(CC)c1ccc(OCC(O)C(C)(C)C)c(C)c1 (stereo unspecified)
6.23 | CCC(CC)(c1ccc(OCC(=O)C(C)(C)C)c(C)c1)c1ccc(OCC(=O)C(C)(C)C)c(C)c1 [LG190155]
